Here are results for 13 molecules from PubChem BioAssay (NCI).

SMILES strings stand for the structures.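 Where inhibition never reached the appropriate level, the endpoint shown equals the highest concentration tested. Otherwise, values were interpolated linearly from a five-concentration, 48-hour dose response in 96-well plates. At the TGI there is no net growth.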

Test systems include SR leukemia; MDA-N; MDA-MB-231 breast; MOLT-4 leukemia; NCI-H522 lung; U251 CNS; NCI-H226 lung; RXF 393 renal; NCI/ADR-RES ovarian; COLO 205 colon; SN12C renal.
What all share (experiment): NCI-60 cell line screen, 48 h

As to `O=C(ON=C1c2ccccc2C(Br)C(Br)c2ccccc21)c1ccccc1` (configuration not stated), the TGI amounted to 9.12 µM in the test on SR leukemia; 34.5 µM with MDA-N; 33.5 µM with MDA-MB-231 breast; 4.61 µM with MOLT-4 leukemia; 3.85 µM in the test on NCI-H522 lung; 31.6 µM in the test on U251 CNS. Besides, the TGI with NCI-H226 lung stood at 34.1 µM; in the test with RXF 393 renal, 28.4 µM; with NCI/ADR-RES ovarian, 51.4 µM; with COLO 205 colon, 36.7 µM; with SN12C renal it was 42.9 µM.
Turning to `CN(C)CCn1c(=O)c2ccc(NCCCN(C)CCCNc3ccc4c(=O)n(CCN(C)C)c(=O)n5c6ccc(O)cc6c(=O)c3c45)c3c(=O)c4cc(O)ccc4n(c1=O)c23`, the TGI with SR leukemia was 0.642 µM; with MDA-N it was 0.251 µM; in the test with MDA-MB-231 breast, 0.177 µM; with MOLT-4 leukemia, less than 0.0289 µM; with NCI-H522 lung, 0.0802 µM; in the test with U251 CNS it was 0.3 µM. For the same molecule, the TGI with NCI-H226 lung was 0.0488 µM; in the test with RXF 393 renal, 0.215 µM; in the test with NCI/ADR-RES ovarian, greater than 46.3 µM; in the test with COLO 205 colon, 0.187 µM; in the test on SN12C renal it was 0.553 µM.
With `Cc1nc(N)c(N2CCN(C#N)CC2)c(=O)[nH]1`, the TGI with SR leukemia, with MDA-N, in the test on MDA-MB-231 breast, with MOLT-4 leukemia, with NCI-H522 lung and in the test with U251 CNS was greater than 100 µM throughout. In addition, the TGI in the test on NCI-H226 lung, with NCI/ADR-RES ovarian, with COLO 205 colon and in the test with SN12C renal was greater than 100 µM throughout.
For `O=C(CCc1cc(O)cc(O)c1)NCCc1cc(OCc2ccccc2)cc(OCc2ccccc2)c1`, the TGI with SR leukemia is 27 µM; with MDA-N it was 35 µM; with MDA-MB-231 breast, 39.3 µM; in the test with MOLT-4 leukemia, 22.7 µM; with NCI-H522 lung, 28.2 µM; with U251 CNS, greater than 100 µM. In addition, the TGI came out at 51.3 µM in the test with NCI-H226 lung; 27.4 µM in the test on RXF 393 renal; 55.2 µM in the test with NCI/ADR-RES ovarian; 44.3 µM in the test on COLO 205 colon; 35.9 µM with SN12C renal.
Consider `O=C(CC(NC(=O)C(F)(F)F)C(=O)O)OCc1ccccc1` (configuration not stated), for which the TGI in the test with SR leukemia, with MDA-N, in the test on MDA-MB-231 breast, in the test with MOLT-4 leukemia, in the test on NCI-H522 lung and in the test on U251 CNS was greater than 100 µM in each case. In addition, the TGI with NCI-H226 lung, in the test on RXF 393 renal, in the test with NCI/ADR-RES ovarian, in the test on COLO 205 colon and in the test with SN12C renal was greater than 100 µM throughout.
With `Cc1c(C)n(-c2ccccc2)c2nc(S(C)=O)nc(S(C)=O)c12` (configuration not stated), the TGI stood at 2.82 µM in the test with SR leukemia; 13.6 µM with MDA-N; 17.3 µM in the test on MDA-MB-231 breast; 5.57 µM with MOLT-4 leukemia; 4.59 µM in the test on NCI-H522 lung; 21.1 µM in the test with U251 CNS. The TGI in the test on NCI-H226 lung is 36.2 µM; in the test on RXF 393 renal, 14.4 µM; in the test on NCI/ADR-RES ovarian, 59.2 µM; with COLO 205 colon it was 3.41 µM; with SN12C renal, 24.6 µM.
Turning to `COC(=O)/C=C(\C)CC/C=C(\C)CCC1OC1(C)C` (configuration not stated), the TGI is 23.4 µM with SR leukemia; 21.9 µM in the test on MDA-N; 23.4 µM with MDA-MB-231 breast; 24.4 µM in the test on MOLT-4 leukemia; 22.5 µM in the test on U251 CNS; 24.8 µM in the test with NCI-H226 lung. The TGI stood at 23.8 µM in the test with RXF 393 renal, 28 µM with NCI/ADR-RES ovarian, 30 µM with COLO 205 colon and 20.8 µM in the test on SN12C renal.
Turning to `c1ccc(C2=NC3OC2c2ccccc23)cc1` (configuration not stated), the TGI in the test on SR leukemia, with MDA-N, in the test on MDA-MB-231 breast, with MOLT-4 leukemia, in the test with NCI-H522 lung and with U251 CNS was greater than 10 µM in each case. The TGI with NCI-H226 lung, with RXF 393 renal, with NCI/ADR-RES ovarian, in the test with COLO 205 colon and in the test on SN12C renal was greater than 10 µM in each case.
In the case of `CCCCCCN(CCCCCC)C(=S)N/N=C(\C)c1ccccn1`, the TGI in the test on SR leukemia turned out to be 11.5 µM; in the test with MDA-N it was 5.56 µM; with MDA-MB-231 breast, 2.76 µM; in the test with MOLT-4 leukemia, 5.79 µM; with NCI-H522 lung, 2.7 µM; with U251 CNS, 1.71 µM. Besides, the TGI with NCI-H226 lung amounted to 2.27 µM; in the test on RXF 393 renal, 2.78 µM; with NCI/ADR-RES ovarian it was 4.27 µM; in the test with COLO 205 colon, 2.14 µM; with SN12C renal, 2.56 µM.
Turning to `Cc1ccc2c(c1C)C(=O)C1(Cc3cc4c(cc3C1=O)CCC4)C2` (configuration not stated), the TGI with SR leukemia, in the test on MDA-N, in the test with MDA-MB-231 breast, in the test on MOLT-4 leukemia, with NCI-H522 lung and in the test on U251 CNS was greater than 100 µM throughout. Moreover, the TGI in the test with NCI-H226 lung, in the test with RXF 393 renal, in the test on NCI/ADR-RES ovarian, in the test on COLO 205 colon and in the test on SN12C renal was greater than 100 µM in each case.
As to `COc1ccc2c(c1)c1c(n2CCN2CCCCC2)-c2cccc(OC)c2CC1`, the TGI worked out at 44.7 µM with SR leukemia; 35 µM in the test on MDA-N; 36.6 µM with MDA-MB-231 breast; 48 µM in the test with MOLT-4 leukemia; 18.8 µM in the test on NCI-H522 lung; 29.9 µM in the test on U251 CNS. In addition, the TGI with NCI-H226 lung amounted to 24.1 µM; with NCI/ADR-RES ovarian, 41.5 µM; in the test with COLO 205 colon it was 39 µM; in the test on SN12C renal it was 36.8 µM.
With `Cc1c2cccc-2c2cc(O)c3ccccc3c2n1-c1ccc(N(C)C)cc1`, the TGI is 26.4 µM in the test with SR leukemia; 36.9 µM in the test on MDA-N; 9.75 µM with MDA-MB-231 breast; 33 µM in the test on NCI-H522 lung; 25.9 µM in the test with U251 CNS; 24.4 µM in the test on NCI-H226 lung. Also, the TGI was found to be 30.7 µM in the test on NCI/ADR-RES ovarian, 32.6 µM with COLO 205 colon and 33.9 µM with SN12C renal.
Regarding `Cn1nc(-c2ccc(S(=O)(=O)/N=C(\NN)Nc3ccc(Cl)cc3)s2)cc1C(F)(F)F`, the TGI was determined as 41.7 µM with SR leukemia; 28 µM in the test on MDA-N; 32.2 µM in the test with MDA-MB-231 breast; 22.4 µM in the test with MOLT-4 leukemia; 28.3 µM in the test on U251 CNS; 32.6 µM in the test with NCI-H226 lung. Also, the TGI with RXF 393 renal came out at 23.6 µM; in the test with NCI/ADR-RES ovarian it was 50.7 µM; with COLO 205 colon, 37.6 µM; in the test with SN12C renal, 31.4 µM.
